How the values were obtained:
Assay in all cases: relative viability (nuclei count vs DMSO), 5 days (fraction); higher = more cells survive
[1] = compound: C1=CC(=CC=C1C2=CC(=C(S2)NC(=O)N)C(=O)N)F [TPCA-1] + CC(=O)c1c(C)c2cnc(Nc3ccc(N4CCNCC4)cn3)nc2n(C2CCCC2)c1=O [Palbociclib] (partner 0.5 µM)
Outline: (§1)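 Dosing by pin tool came one day after lung cancer cell lines were seeded in 1536-well plates, using either one drug or a fixed anchor-drug dose plus five library-drug doses (not always all listed) in √10 steps. After 5 days, nuclei were counted on 4× images. Relative viability is treated-well nuclei count divided by vehicle-well nuclei count, and values are medians of duplicate plates.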

[2] = compound: C1/C(=C\C2=CC=CS2)/C(=O)/C(=C/C3=CC=CS3)/C1 + Cc1nc(Nc2ncc(C(=O)Nc3c(C)cccc3Cl)s2)cc(N2CCN(CCO)CC2)n1 [Dasatinib] (partner 0.075 µM)
Outline: as §1

[3] = compound: C1=CC(=CC=C1C2=CC(=C(S2)NC(=O)N)C(=O)N)F [TPCA-1] + CC1(C)CCC(c2ccc(Cl)cc2)=C(CN2CCN(c3ccc(C(=O)NS(=O)(=O)c4ccc(N[C@H](CCN5CCOCC5)CSc5ccccc5)c(S(=O)(=O)C(F)(F)F)c4)cc3)CC2)C1 [Navitoclax] (partner 0.5 µM)
Outline: as §1

[4] = compound: C1=CC(=CC=C1C2=CC(=C(S2)NC(=O)N)C(=O)N)F [TPCA-1] + Nc1nc2[nH]cc(CCc3ccc(C(=O)N[C@@H](CCC(=O)O)C(=O)O)cc3)c2c(=O)[nH]1 [Pemetrexed] (partner 0.2 µM)
Outline: as §1

Row | Cell Line | relative viability ([1]; first compound 0.04 µM) | relative viability ([1]; first compound 0.1265 µM) | relative viability ([1]; first compound 0.4 µM) | relative viability ([1]; first compound 1.265 µM) | relative viability ([1]; first compound 4 µM) | relative viability ([2]; first compound 0.2 µM) | relative viability ([2]; first compound 0.6325 µM) | relative viability ([2]; first compound 2 µM) | relative viability ([2]; first compound 6.325 µM) | relative viability ([2]; first compound 20 µM) | relative viability ([3]; first compound 0.04 µM) | relative viability ([3]; first compound 0.1265 µM) | relative viability ([3]; first compound 0.4 µM) | relative viability ([3]; first compound 1.265 µM) | relative viability ([3]; first compound 4 µM) | relative viability ([4]; first compound 0.04 µM) | relative viability ([4]; first compound 0.1265 µM) | relative viability ([4]; first compound 0.4 µM) | relative viability ([4]; first compound 1.265 µM) | relative viability ([4]; first compound 4 µM)
1 | COR-L23 | 0.316 | 0.289 | 0.272 | 0.206 | 0.169 | 0.571 | 0.48 | 0.571 | 0.429 | 0.492 | 1.28 | 0.953 | 1.03 | 1.03 | 0.733 | 0.206 | 0.207 | 0.184 | 0.193 | 0.196
2 | COR-L 105 | 0.419 | 0.457 | 0.419 | 0.379 | 0.359 | 0.453 | 0.341 | 0.339 | – | 0.302 | 0.964 | 0.642 | 0.962 | 0.636 | 0.64 | 1.02 | 0.931 | 1.23 | 1.03 | 0.777
3 | ChaGo-K-1 | 0.976 | 0.663 | 0.795 | 0.891 | 0.733 | 0.546 | 0.669 | 0.592 | 0.51 | 0.286 | 0.959 | 0.927 | 1.13 | 0.98 | 0.406 | 0.273 | 0.23 | 0.274 | 0.261 | 0.211
4 | EKVX | 0.451 | – | 0.469 | 0.269 | 0.394 | 0.556 | 0.433 | 0.519 | – | 0.459 | 0.956 | 0.818 | 0.913 | 0.793 | 0.836 | 0.43 | – | 0.343 | 0.329 | 0.375
5 | EMC-BAC-2 | 0.513 | 0.519 | 0.524 | 0.413 | 0.485 | 0.359 | 0.372 | 0.366 | 0.306 | 0.431 | 1.21 | 1.19 | 1.14 | 1.13 | 1.01 | 0.422 | 0.472 | 0.466 | 0.436 | 0.484
6 | EPLC-272H | 0.355 | 0.3 | 0.328 | 0.326 | 0.297 | 0.322 | 0.332 | 0.45 | 0.349 | 0.311 | 1.28 | 0.969 | 0.934 | 1.01 | 0.821 | 0.287 | 0.331 | 0.371 | 0.359 | 0.266
7 | H3255 | 0.275 | 0.292 | 0.285 | 0.293 | 0.279 | 0.298 | 0.366 | 0.568 | 0.321 | 0.289 | 0.536 | 0.507 | 0.473 | 0.396 | 0.242 | 0.577 | 0.487 | 0.58 | 0.484 | 0.493
8 | HARA | 0.249 | 0.298 | 0.282 | 0.27 | 0.176 | 0.275 | 0.3 | 0.338 | 0.269 | 0.252 | 1.13 | 1.08 | 1.16 | 1.08 | 1.08 | 0.242 | 0.226 | 0.226 | 0.198 | 0.223

Source: the supplement of paper PMC10307832
